Source: patent US20260001928A1 (CORTERIA PHARMACEUTICALS, priority 2022, published 2026)
*1 amine or outer side, *2 acyl side, *3 side chain or, on linkers, in order; H or OH if unused. Where a SMILES comes first, the peptide text is derived from it. Side-chain parts run from the residue outwards. [ ]: non-standard residue; d: D form. The star is where a group is joined. C20 diacid = O=C(O)CCCCCCCCCCCCCCCCCCC(=O)*; C16 diacid = O=C(O)CCCCCCCCCCCCCCC(=O)*; γGlu = O=C(O)[C@H](CCC(=O)[*:2])N[*:1]; C14 diacid = O=C(O)CCCCCCCCCCCCC(=O)*; NMeI = CC[C@H](C)[C@H](NC)C(=O)O; AEEA = NCCOCCOCC(=O)O; Aib = CC(C)(N)C(=O)O

B1: peptide of SEQ ID NO: 40 (peptide)
peptide: Ac-IVLSLD[dV]PIKLK([γGlu-C16 diacid])KILLEQEKQKKQREQAETN[Aib]QILAQV-NH2
SMILES: CC[C@H](C)[C@H](NC(C)=O)C(=O)N[C@H](C(=O)N[C@@H](CC(C)C)C(=O)N[C@@H](CO)C(=O)N[C@@H](CC(C)C)C(=O)N[C@@H](CC(=O)O)C(=O)N[C@@H](C(=O)N1CCC[C@H]1C(=O)N[C@H](C(=O)N[C@@H](CCCCN)C(=O)N[C@@H](CC(C)C)C(=O)N[C@@H](CCCCNC(=O)CC[C@H](NC(=O)CCCCCCCCCCCCCCC(=O)O)C(=O)O)C(=O)N[C@@H](CCCCN)C(=O)N[C@H](C(=O)N[C@@H](CC(C)C)C(=O)N[C@@H](CC(C)C)C(=O)N[C@@H](CCC(=O)O)C(=O)N[C@@H](CCC(N)=O)C(=O)N[C@@H](CCC(=O)O)C(=O)N[C@@H](CCCCN)C(=O)N[C@@H](CCC(N)=O)C(=O)N[C@@H](CCCCN)C(=O)N[C@@H](CCCCN)C(=O)N[C@@H](CCC(N)=O)C(=O)N[C@@H](CCCNC(=N)N)C(=O)N[C@@H](CCC(=O)O)C(=O)N[C@@H](CCC(N)=O)C(=O)N[C@@H](C)C(=O)N[C@@H](CCC(=O)O)C(=O)N[C@H](C(=O)N[C@@H](CC(N)=O)C(=O)NC(C)(C)C(=O)N[C@@H](CCC(N)=O)C(=O)N[C@H](C(=O)N[C@@H](CC(C)C)C(=O)N[C@@H](C)C(=O)N[C@@H](CCC(N)=O)C(=O)N[C@H](C(N)=O)C(C)C)[C@@H](C)CC)[C@@H](C)O)[C@@H](C)CC)[C@@H](C)CC)C(C)C)C(C)C

What was measured:
human LAD2 cells = type: cell-based
Outline: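 Mast cell degranulation: cells exposed to peptides for 30 min at final concentrations from 50, 100 or 300 down to 0.1 or 0.001 μM, with 0.5% DMSO where used, in biological duplicates. β-hexosaminidase release was read with a fluorogenic 4-methylumbelliferyl substrate as supernatant/(supernatant + Triton-lysed pellet) × 100. EC50 came from a 4-parameter sigmoidal fit.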

[1] = biological target: Rat CRF2 a (corticotropin-releasing factor receptor 2), on the A7R5 rat aortic smooth muscle cell line (rat, UniProt P47866 20-411); experiment: cell-based or functional assay
Chain of Rat CRF2 a (corticotropin-releasing factor receptor 2), on the A7R5 rat aortic smooth muscle cell line (P47866 20-411): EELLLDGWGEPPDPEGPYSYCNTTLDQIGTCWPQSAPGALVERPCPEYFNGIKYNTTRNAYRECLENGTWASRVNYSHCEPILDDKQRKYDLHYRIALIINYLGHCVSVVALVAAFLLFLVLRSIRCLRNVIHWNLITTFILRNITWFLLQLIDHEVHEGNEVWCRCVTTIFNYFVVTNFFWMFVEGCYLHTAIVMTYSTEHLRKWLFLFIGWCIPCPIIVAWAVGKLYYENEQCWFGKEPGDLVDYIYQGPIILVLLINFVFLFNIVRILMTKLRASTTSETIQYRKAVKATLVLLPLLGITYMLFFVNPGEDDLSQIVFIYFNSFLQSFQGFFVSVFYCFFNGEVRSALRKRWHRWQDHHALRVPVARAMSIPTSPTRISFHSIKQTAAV

| Molecule | EC50 (human LAD2 cells) | EC50 [nM] 0% HSA (cAMP, A7R5 rat aortic smooth muscle cells) [1] |
| --- | --- | --- |
| CC[C@H](C)[C@H](NC)C(=O)N[C@H](C(=O)N[C@@H](CC(C)C)C(=O)N[C@@H](CO)C(=O)N[C@@H](CC(C)C)C(=O)N[C@@H](CC(=O)O)C(=O)N[C@@H](C(=O)N1CCC[C@H]1C(=O)N[C@H](C(=O)N[C@@H](CCCCN)C(=O)N[C@@H](CC(C)C)C(=O)N[C@@H](CCCCNC(=O)COCCOCCNC(=O)CC[C@H](NC(=O)CCCCCCCCCCCCCCCCCCC(=O)O)C(=O)O)C(=O)N[C@@H](CCCCN)C(=O)N[C@H](C(=O)N[C@@H](CC(C)C)C(=O)N[C@@H](CC(C)C)C(=O)N[C@@H](CCC(=O)O)C(=O)N[C@@H](CCC(N)=O)C(=O)N[C@@H](CCC(=O)O)C(=O)N[C@@H](CCCCN)C(=O)N[C@@H](CCC(N)=O)C(=O)N[C@@H](CCCCN)C(=O)NC(C)(C)C(=O)N[C@@H](CCC(N)=O)C(=O)N[C@@H](CCCNC(=N)N)C(=O)N[C@@H](CCC(=O)O)C(=O)N[C@@H](CCC(N)=O)C(=O)N[C@@H](C)C(=O)N[C@@H](CCC(=O)O)C(=O)N[C@H](C(=O)N[C@@H](CC(N)=O)C(=O)NC(C)(C)C(=O)N[C@@H](CCC(N)=O)C(=O)N[C@H](C(=O)N[C@@H](CC(C)C)C(=O)N[C@@H](C)C(=O)N[C@@H](CCC(N)=O)C(=O)N[C@H](C(N)=O)C(C)C)[C@@H](C)CC)[C@@H](C)O)[C@@H](C)CC)[C@@H](C)CC)C(C)C)C(C)C [Cmpd 234] (H-[NMeI]VLSLD[dV]PIKLK([AEEA-γGlu-C20 diacid])KILLEQEKQK[Aib]QREQAETN[Aib]QILAQV-NH2) | 49.2 µM | – |
| CC[C@H](C)[C@H](NC)C(=O)N[C@H](C(=O)N[C@@H](CC(C)C)C(=O)N[C@@H](CO)C(=O)N[C@@H](CC(C)C)C(=O)N[C@@H](CC(=O)O)C(=O)N[C@@H](C(=O)N1CCC[C@H]1C(=O)N[C@H](C(=O)N[C@@H](CCCCN)C(=O)N[C@@H](CC(C)C)C(=O)N[C@@H](CCCCNC(=O)COCCOCCNC(=O)CC[C@H](NC(=O)CCCCCCCCCCCCCCCCCCC(=O)O)C(=O)O)C(=O)N[C@@H](CCCCN)C(=O)N[C@H](C(=O)N[C@@H](CC(C)C)C(=O)N[C@@H](CC(C)C)C(=O)N[C@@H](CCC(=O)O)C(=O)N[C@@H](CCC(N)=O)C(=O)N[C@@H](CCC(=O)O)C(=O)N[C@@H](CCCCN)C(=O)N[C@@H](CCC(N)=O)C(=O)N[C@@H](CCCCN)C(=O)N[C@@H](CCC(=O)O)C(=O)N[C@@H](CCC(N)=O)C(=O)N[C@@H](CCCNC(=N)N)C(=O)N[C@@H](CCC(=O)O)C(=O)N[C@@H](CCC(N)=O)C(=O)N[C@@H](C)C(=O)N[C@@H](CCC(=O)O)C(=O)N[C@H](C(=O)N[C@@H](CC(N)=O)C(=O)NC(C)(C)C(=O)N[C@@H](CCC(N)=O)C(=O)N[C@H](C(=O)N[C@@H](CC(C)C)C(=O)N[C@@H](C)C(=O)N[C@@H](CCC(N)=O)C(=O)N[C@H](C(N)=O)C(C)C)[C@@H](C)CC)[C@@H](C)O)[C@@H](C)CC)[C@@H](C)CC)C(C)C)C(C)C [Cmpd 233] (H-[NMeI]VLSLD[dV]PIKLK([AEEA-γGlu-C20 diacid])KILLEQEKQKEQREQAETN[Aib]QILAQV-NH2) | > 300 µM | – |
| CC[C@H](C)[C@H](NC)C(=O)N[C@H](C(=O)N[C@@H](CC(C)C)C(=O)N[C@@H](CO)C(=O)N[C@@H](CC(C)C)C(=O)N[C@@H](CC(=O)O)C(=O)N[C@@H](C(=O)N1CCC[C@H]1C(=O)N[C@H](C(=O)N[C@@H](CCCCN)C(=O)N[C@@H](CC(C)C)C(=O)N[C@@H](CCCCNC(=O)CC[C@H](NC(=O)CCCCCCCCCCCCCCCCCCC(=O)O)C(=O)O)C(=O)N[C@@H](CCCCN)C(=O)N[C@H](C(=O)N[C@@H](CC(C)C)C(=O)N[C@@H](CC(C)C)C(=O)N[C@@H](CCC(=O)O)C(=O)N[C@@H](CCC(N)=O)C(=O)N[C@@H](CCC(=O)O)C(=O)N[C@@H](CCCCN)C(=O)N[C@@H](CCC(N)=O)C(=O)N[C@@H](CCCCN)C(=O)NC(C)(C)C(=O)N[C@@H](CCC(N)=O)C(=O)N[C@@H](CCCNC(=N)N)C(=O)N[C@@H](CCC(=O)O)C(=O)N[C@@H](CCC(N)=O)C(=O)N[C@@H](C)C(=O)N[C@@H](CCC(=O)O)C(=O)N[C@H](C(=O)N[C@@H](CC(N)=O)C(=O)NC(C)(C)C(=O)N[C@@H](CCC(N)=O)C(=O)N[C@H](C(=O)N[C@@H](CC(C)C)C(=O)N[C@@H](C)C(=O)N[C@@H](CCC(N)=O)C(=O)N[C@H](C(N)=O)C(C)C)[C@@H](C)CC)[C@@H](C)O)[C@@H](C)CC)[C@@H](C)CC)C(C)C)C(C)C [Cmpd 215] (H-[NMeI]VLSLD[dV]PIKLK([γGlu-C20 diacid])KILLEQEKQK[Aib]QREQAETN[Aib]QILAQV-NH2) | > 100 µM | – |
| CC[C@H](C)[C@H](NC(C)=O)C(=O)N[C@H](C(=O)N[C@@H](CC(C)C)C(=O)N[C@@H](CO)C(=O)N[C@@H](CC(C)C)C(=O)N[C@@H](CC(=O)O)C(=O)N[C@@H](C(=O)N1CCC[C@H]1C(=O)N[C@H](C(=O)N[C@@H](CCCCN)C(=O)N[C@@H](CC(C)C)C(=O)N[C@@H](CCCCNC(=O)CC[C@H](NC(=O)CCCCCCCCCCCCCCCCCCC(=O)O)C(=O)O)C(=O)N[C@@H](CCCCN)C(=O)N[C@H](C(=O)N[C@@H](CC(C)C)C(=O)N[C@@H](CC(C)C)C(=O)N[C@@H](CCC(=O)O)C(=O)N[C@@H](CCC(N)=O)C(=O)N[C@@H](CCC(=O)O)C(=O)N[C@@H](CCCCN)C(=O)N[C@@H](CCC(N)=O)C(=O)N[C@@H](CCCCN)C(=O)N[C@@H](C)C(=O)N[C@@H](CCC(N)=O)C(=O)N[C@@H](CCCNC(=N)N)C(=O)N[C@@H](CCC(=O)O)C(=O)N[C@@H](CCC(N)=O)C(=O)N[C@@H](C)C(=O)N[C@@H](CCC(=O)O)C(=O)N[C@H](C(=O)N[C@@H](CC(N)=O)C(=O)NC(C)(C)C(=O)N[C@@H](CCC(N)=O)C(=O)N[C@H](C(=O)N[C@@H](CC(C)C)C(=O)N[C@@H](C)C(=O)N[C@@H](CCC(N)=O)C(=O)N[C@H](C(N)=O)C(C)C)[C@@H](C)CC)[C@@H](C)O)[C@@H](C)CC)[C@@H](C)CC)C(C)C)C(C)C [Cmpd 212] (Ac-IVLSLD[dV]PIKLK([γGlu-C20 diacid])KILLEQEKQKAQREQAETN[Aib]QILAQV-NH2) | > 300 µM | – |
| CC[C@H](C)[C@H](NC(C)=O)C(=O)N[C@H](C(=O)N[C@@H](CC(C)C)C(=O)N[C@@H](CO)C(=O)N[C@@H](CC(C)C)C(=O)N[C@@H](CC(=O)O)C(=O)N[C@@H](C(=O)N1CCC[C@H]1C(=O)N[C@H](C(=O)N[C@@H](CCCCN)C(=O)N[C@@H](CC(C)C)C(=O)N[C@@H](CCCCNC(=O)COCCOCCNC(=O)CC[C@H](NC(=O)CCCCCCCCCCCCCCCCCCC(=O)O)C(=O)O)C(=O)N[C@@H](CCCCN)C(=O)N[C@H](C(=O)N[C@@H](CC(C)C)C(=O)N[C@@H](CC(C)C)C(=O)N[C@@H](CCC(=O)O)C(=O)N[C@@H](CCC(N)=O)C(=O)N[C@@H](CCC(=O)O)C(=O)N[C@@H](CCCCN)C(=O)N[C@@H](CCC(N)=O)C(=O)N[C@@H](CCCCN)C(=O)N[C@@H](CCC(=O)O)C(=O)N[C@@H](CCC(N)=O)C(=O)N[C@@H](CCCNC(=N)N)C(=O)N[C@@H](CCC(=O)O)C(=O)N[C@@H](CCC(N)=O)C(=O)N[C@@H](C)C(=O)N[C@@H](CCC(=O)O)C(=O)N[C@H](C(=O)N[C@@H](CC(N)=O)C(=O)NC(C)(C)C(=O)N[C@@H](CCC(N)=O)C(=O)N[C@H](C(=O)N[C@@H](CC(C)C)C(=O)N[C@@H](C)C(=O)N[C@@H](CCC(N)=O)C(=O)N[C@H](C(N)=O)C(C)C)[C@@H](C)CC)[C@@H](C)O)[C@@H](C)CC)[C@@H](C)CC)C(C)C)C(C)C [Cmpd 231] (Ac-IVLSLD[dV]PIKLK([AEEA-γGlu-C20 diacid])KILLEQEKQKEQREQAETN[Aib]QILAQV-NH2) | 47.5 µM | – |
| Ac-IVLSLD[dV]PIKLK([γGlu-C14 diacid])KILLEQEKQKKQREQAETNEQILAQV-NH2 [comparative peptide 11 (SEQ ID NO: 85)] | – | 1.01 nM |
| B1 | – | 0.59 nM |
